Patent US10633342B2, “Inhibitors of indoleamine 2,3-dioxygenase and methods of their use” (BRISTOL-MYERS SQUIBB COMPANY, priority 2016, dated 2020)

These compounds were tested against T1, human IDO1 (Homo sapiens, UniProt P14902) (assay: HEK Human IDO-1 inhibition assay (kynurenine, Ehrlich reagent, absorbance 490 nm)). Details: human IDO1/HEK293 cells, 20 hours incubation; read-out: HEK Human IDO-1 Bio Activity (IDO IC50).
T1 construct: expressed in transfected cells
T1 sequence (P14902 whole entry): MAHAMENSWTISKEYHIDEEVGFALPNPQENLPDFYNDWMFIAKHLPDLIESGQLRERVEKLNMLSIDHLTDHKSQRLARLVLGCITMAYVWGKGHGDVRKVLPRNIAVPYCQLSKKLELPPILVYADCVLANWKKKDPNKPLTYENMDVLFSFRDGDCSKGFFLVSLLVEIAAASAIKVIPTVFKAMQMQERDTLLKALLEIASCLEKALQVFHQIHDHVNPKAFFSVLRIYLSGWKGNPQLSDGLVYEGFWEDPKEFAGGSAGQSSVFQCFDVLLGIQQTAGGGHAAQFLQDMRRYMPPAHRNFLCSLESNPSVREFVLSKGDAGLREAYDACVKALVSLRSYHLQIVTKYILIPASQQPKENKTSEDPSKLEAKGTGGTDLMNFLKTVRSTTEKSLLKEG
Assay type: cell-based
Description: HEK293 cells were transfected with a pCDNA-based mammalian expression vector harboring human IDO1 cDNA (NM 002164.2) by electroporation. They were cultured in medium (DMEM with 10% FBS) containing 1 mg/ml G418 for two weeks. Clones of HEK293 cells that stably expressed human IDO1 protein were selected and expanded for IDO inhibition assay.
The human IDO1/HEK293 cells were seeded at 10,000 cells per 50 μL per well with RPMI/phenol red free media contains 10% FBS in a 384-well black wall clear bottom tissue culture plate (Matrix Technologies LLC) 100 nL of certain concentration of compound was then added to each well using ECHO liquid handling systems. The cells were incubated for 20 hours in 37° C. incubator with 5% CO2.
The compound treatments were stopped by adding trichloroacetic acid (Sigma-Aldrich) to a final concentration at 0.2%. The cell plate was further incubated at 50° C. for 30 minute. The equal volume supernatant (20 μL) and 0.2% (w/v) Ehrlich reagent (4-dimethylaminobenzaldehyde, Sigma-Aldrich) in glacial acetic acid were mixed in a new clear bottom 384-well plate. This plate was then incubated at room temperature for 30 minute. The absorbance at 490 nm was measured on Envision plate reader.
Compound IC50 values were calculated using the counts of 500 nM of a reference standard treatment as one hundred percent inhibition, and counts of no compound but DMSO treatment as zero percent inhibition.
In the case of `C[C@@H](NC(=O)C12CCC(Cl)(CC1)CC2)[C@H]1CC[C@@H](c2ccnc3ccc(F)cc32)CC1` [Example 14, 4-chloro-N—((R)-1-((cis)-4-(6-fluoroquinolin-4-yl)cyclohexyl)ethyl)bicyclo [2.2.2]octane-1-carboxamide], the IC50 is reported as less than 100 nM. `C[C@@H](NC(=O)Cc1ccccc1F)[C@H]1CC[C@@H](c2ccnc3ccc(F)cc32)CC1` [Example 12, 2-(2-fluorophenyl)-N-((R)-1-((1s,4S)-4-(6-fluoroquinolin-4-yl)cyclohexyl)ethyl)acetamide] was tested, and the IC50 was less than 1000 nM. Compound `C[C@@H](CNC(=O)c1ccc(Cl)cc1)[C@H]1CC[C@@H](c2ccnc3ccc(F)cc32)CC1` [Example 4, 4-chloro-N—((R)-2-((cis)-4-(6-fluoroquinolin-4-yl)cyclohexyl)propyl)benzamide] has an IC50 of less than 1000 nM. `CO[C@@H](C(=O)N[C@H](C)[C@H]1CC[C@@H](c2ccnc3ccc(F)cc32)CC1)c1ccccc1` [Example 11] showed an IC50 of less than 100 nM. Work on `C[C@@H](NC(=O)[C@H]1CC[C@H](O)CC1)[C@H]1CC[C@@H](c2ccnc3ccc(F)cc32)CC1` [Example 22, (1r,4R)-N-((R)-1-((1s,4S)-4-(6-fluoroquinolin-4-y1)cyclohexyl)ethyl)-4-hydroxycxclohexanecarboxamide] yielded an IC50 of less than 1000 nM. Compound `C[C@@H](NC(=O)C1CC1)[C@H]1CC[C@@H](c2ccnc3ccc(F)cc32)CC1` [Example 16, N-((R)-1-((1s,4S)-4-(6-fluoroquinolin-4-yl)cyclohexyl)ethyl)-cyclopropanecarboxamide] has an IC50 of less than 1000 nM. In the case of `C[C@@H](NC(=O)Cc1cccc(Cl)c1)[C@H]1CC[C@@H](c2ccnc3ccc(F)cc32)CC1` [Example 7, 2-(3-chlorophenyl)-N-((R)-1-((1s,4S)-4-(6-fluoroquinolin-4-yl)cyclohexyl)ethyl)acetamide], the IC50 is reported as less than 1000 nM. In the case of `O=C(Cc1ccccc1F)NCC1CCN(c2ccnc3ccc(F)cc23)CC1` [Example 3, 2-(2-Fluorophenyl)-N-((1-(6-fluoroquinolin-4-yl)piperidin-4-yl)methyl)acetamide], the IC50 is reported as less than 1000 nM. `COc1ccc(CC(=O)N[C@H](C)[C@H]2CC[C@@H](c3ccnc4ccc(F)cc43)CC2)cc1` [Example 10, N-((R)-1-((1s,4S)-4-(6-fluoroquinolin-4-yl)cyclohexyl)ethyl)-2-(4-methoxyphenyl)acetamide] gave an IC50 of less than 1000 nM. `C[C@@H](NC(=O)[C@H]1CC[C@@H](O)CC1)[C@H]1CC[C@@H](c2ccnc3ccc(F)cc32)CC1` [Example 21, (1s,4S)-N-((R)-1-((1s,4S)-4-(6-fluoroquinolin-4-yl)cyclohexyl)ethyl)-4-hydroxycxclohexanecarboxamide] showed an IC50 of less than 1000 nM. Compound `C[C@@H](C(=O)N[C@H](C)[C@H]1CC[C@@H](c2ccnc3ccc(F)cc32)CC1)c1ccccc1` [Example 9, (R)-N-((R)-1-((1s,4S)-4-(6-fluoroquinolin-4-yl)cyclohexyl)ethyl)-2-phenylpropanamide] has an IC50 of less than 1000 nM. `C[C@H](C(=O)N[C@H](C)[C@H]1CC[C@@H](c2ccnc3ccc(F)cc32)CC1)c1ccccc1` [Example 8, (S)-N-((R)-1-((1s,4S)-4-(6-fluoroquinolin-4-yl)cyclohexyl)ethyl)-2-phenylpropanamide] gave an IC50 of less than 1000 nM. With `Cc1ccc(CC(=O)NCC2CCN(c3ccnc4ccc(F)cc34)CC2)cc1` [Example 1, N-((1-(6-Fluoroquinolin-4-yl)piperidin-4-yl)methyl)-2-(p-tolyl)acetamide] the IC50 was less than 100 nM. In the case of `C[C@@H](NC(=O)C1CCC1)[C@H]1CC[C@@H](c2ccnc3ccc(F)cc32)CC1` [Example 20, N-((R)-1-((1s,4S)-4-(6-fluoroquinolin-4-yl)cyclohexyl)ethyl)-cyclobutanecarboxamide], the IC50 is reported as less than 1000 nM. `O=C(Cc1ccc(F)cc1)NCC1CCN(c2ccnc3ccc(F)cc23)CC1` [Example 2, 2-(4-Fluorophenyl)-N-((1-(6-fluoroquinolin-4-yl)piperidin-4-yl)methyl)acetamide] was tested, and the IC50 was less than 100 nM. With `C[C@@H](NC(=O)C1(c2ccc(Cl)cc2)CCC1)[C@H]1CC[C@@H](c2ccnc3ccc(F)cc32)CC1` [Example 13, 1-(4-chlorophenyl)-N-((R)-1-((1s,4S)-4-(6-fluoroquinolin-4-yl)cyclohexyl)ethyl)-cyclobutanecarboxamide] the IC50 was less than 100 nM. With `C[C@@H](NC(=O)[C@H]1C[C@H](F)C1)[C@H]1CC[C@@H](c2ccnc3ccc(F)cc32)CC1` [Example 18, (1r,3R)-3-fluoro-N-((R)-1-((1s,4S)-4-(6-fluoroquinolin-4-yl)cyclohexyl)ethyl)-cyclobutanecarboxamide] the IC50 was less than 1000 nM. With `C[C@@H](NC(=O)Cc1ccccc1Cl)[C@H]1CC[C@@H](c2ccnc3ccc(F)cc32)CC1` [Example 6, 2-(2-chlorophenyl)-N-((R)-1-((1s,4S)-4-(6-fluoroquinolin-4-yl)cyclohexyl)ethyl)acetamide] the IC50 was less than 1000 nM. With `C[C@@H](NC(=O)[C@H]1C[C@@H](F)C1)[C@H]1CC[C@@H](c2ccnc3ccc(F)cc32)CC1` [Example 19, (1s,3S)-3-fluoro-N-((R)-1-((1s,4S)-4-(6-fluoroquinolin-4-yl)cyclohexyl)ethyl)-cyclobutanecarboxamide] the IC50 was less than 1000 nM. For `C[C@@H](NC(=O)Cc1ccc(Cl)cc1)[C@H]1CC[C@@H](c2ccnc3ccc(F)cc32)CC1` [Example 5, 2-(4-chlorophenyl)-N-((R)-1-((1s,4S)-4-(6-fluoroquinolin-4-yl)cyclohexyl)ethyl)acetamide], the IC50 was less than 1000 nM. Work on `C[C@@H](NC(=O)C1CC(F)(F)C1)[C@H]1CC[C@@H](c2ccnc3ccc(F)cc32)CC1` [Example 17, 3,3-difluoro-N-((R)-1-((1s,4S)-4-(6-fluoroquinolin-4-yl)cyclohexyl)ethyl)-cyclobutanecarboxamide] yielded an IC50 of less than 1000 nM. For `C[C@@H](NC(=O)C1CCCCC1)[C@H]1CC[C@@H](c2ccnc3ccc(F)cc32)CC1` [Example 15, N-((R)-1-((1s,4S)-4-(6-fluoroquinolin-4-yl)cyclohexyl)ethyl)-cyclohexanecarboxamide], the IC50 was less than 100 nM.
